Measured values as given in patent US11414404B2, “Compounds for the treatment of BRAF-associated diseases and disorders” (Array BioPharma Inc., priority 2019, dated 2022).
Read-outs that look alike come from different tables or passages of the source.

Assays:
[1] = molecular target: full-length FLAG-tagged B-Raf(V600E) (Homo sapiens (Human), UniProt P15056, V600E); test: BRAF V600E enzyme assay (TR-FRET competitive displacement of fluorescent tracer); assay type: binding; details: averaged IC50; 60 min at ambient temperature; 11-point dosing, top dose 10 μM
Text: (§1) A competitive displacement assay was configured for B-Raf that monitors the amount of a fluorescently-tagged “tracer” bound to B-Raf via TR-FRET from an anti-tag Eu-labeled antibody also bound to B-Raf.
(§2) [formula] • where: • Xmax Average Uninhibited Controls • Xmin Average Background
(§3) A 4-parameter logistic model was the fit to the POC data for each compound.

BCRP [2] = molecular target: T1, BCRP (Homo sapiens (Human), UniProt Q9UNQ0); test: BCRP MDCKII permeability assay: efflux ratio; details: for BCRP efflux ratio: BCRP transfected MDCKII cells, Papp(B−A)/Papp(A−B), test article 1 μM, 2 hours; for efflux ratio at 2 h, 1 µM: dog
Description: (§4) BCRP transfected MDCKII cells were cultured and plated according to manufacturer's recommendations. Assay conditions included with and without the BCRP-specific inhibitor, K0143, at a concentration of 0.3 μM to ascertain the contribution of BCRP to the efflux value of the test compound.
(§5) Both positive and negative controls were used to assess functionality of P-gp or BCRP efflux in the assays. […] Final organic concentration in the assay was 1%. All dosing solutions contained 10 μM lucifer yellow to monitor LLC-PK1 or MDCKII cell monolayer integrity.
(§6) For the apical to basolateral determination (A to B), 75 μL of the test article in transport buffer were added to the apical side of the individual transwells and 250 μL of basolateral media, without compound or lucifer yellow, were added to each well. For the basolateral to apical determination (B to A), 250 μL of test article in transport buffer were added to each well and 75 μL transport buffer, without compound or lucifer yellow, were added to each transwell. All tests were performed in triplicate, and each compound was tested for both apical to basolateral and basolateral to apical transport. The plates were incubated for 2 hours on a Lab-Line Instruments Titer Orbital Shaker (VWR, West Chester, Pa.) at 50 rpm and 37° C. with 5% CO2. All culture plates were removed from the incubator and 50 μL of media were removed from the apical and basolateral portion of each well and added to 150 μL of 1 μM labetalol in 2:1 acetonitrile (acetonitrile): H2O, v/v.
(§7) These values were accepted when found to be below 2% for apical to basolateral and 5% basolateral to apical flux across the MDR1-transfected LLC-PK1 or BCRP-transfected MDCKII cell monolayers. The plates were sealed and the contents of each well analyzed by LC-MS/MS. The compound concentrations were determined from the ratio of the peak areas of the compound to the internal standard (labetalol) in comparison to the dosing solution.
(§8) The LC-MS/MS system was comprised of an HTS-PAL autosampler (Leap Technologies, Carrboro, N.C.), an HP1200 HPLC (Agilent, Palo Alto, Calif.), and a MDS Sciex 4000 Q Trap system (Applied Biosystems, Foster City, Calif.). […] The total run time, including re-equilibration, for a single injection was 1.2 minutes. Mass spectrometric detection of the analytes was accomplished using the ion spray positive mode.
(§9) An efflux ratio is calculated from the mean apical to basolateral (A−B) Papp data and basolateral to apical (B−A) Papp data: Efflux ratio=Papp(B−A)/Papp(A−B)

P-gp (MDR1) [3] = molecular target: T2, P-gp (MDR1) (Homo sapiens (Human), UniProt P08183); test: MDR1 LLC-PK1 permeability assay: efflux ratio; details: for MDR1 efflux ratio: MDR1 transfected LLC-PK1 cells, Papp(B−A)/Papp(A−B), test article 1 μM, 2 hours; for efflux ratio at 2 h, 1 µM: pig, LLC-PK1
Description: (§10) Both LLC-PK1 and MDR1 transfected LLC-PK1 cells were cultured and plated according to manufacturer's recommendations with the exception that the passage media contained only 2% fetal bovine serum to extend passage time out to seven days.
as §5, §6, §7, §8, §9

[4] = tested on: LLC-PK1 or MDCKII cell monolayer; test: MDR1 LLC-PK1 and BCRP MDCKII permeability assay: permeability coefficient (Papp); details: permeability coefficient Papp; test article 1 μM; 2 hours, 37° C.
Description: as §10, §4, §5, §6, §7, §8
(§11) where Cd, V, t and C0 are the detected concentration (μM), the volume on the dosing side (mL); the incubation time (s) and the initial dosing concentration (μM), respectively. The calculations for Papp were made for each replicate and then averaged.

[5] = molecular target: N-terminally GST-tagged B-Raf(V600K) (Homo sapiens, UniProt P15056, V600K); test: BRAF V600K enzyme assay (TR-FRET competitive displacement of fluorescent tracer); assay type: binding; details: averaged IC50; 60 min at ambient temperature; 11-point dosing, top dose 10 μM
Text: as §1, §2, §3

[6] = PK (free brain-to-free plasma ratio) (mouse); assay type: in vivo; details: unbound brain-to-unbound plasma concentration ratio, male CD-1 mice, oral gavage 10 mg/kg, sampling 2-24 hours; for Kp,uu (unbound brain/unbound plasma ratio): mouse, read-out: B/P ratio (free)
Description: PK (Free Brain-to-Free Plasma Ratio) (Mouse)
The ability of representative compounds to penetrate the BBB in mice was determined by evaluating the unbound brain-to-unbound plasma (also referred to as free brain-to-free plasma) concentration ratio in male CD-1 mice.
Brain samples were stored at −20±5° C. prior to analysis. Concentrations of test compound in mouse brain homogenate were determined by liquid chromatography tandem mass spectrometry (LC-MS/MS) following protein precipitation with acetonitrile. A 12-point calibration curve, ranging from 0.5 to 10,000 ng/mL, was prepared in duplicate. A solution of 400 μg/mL of test compound in dimethyl sulfoxide (DMSO) was serially diluted (3-fold) in 100% DMSO, and then 2.5 μL of each standard solution was added to 100 μL of naïve male CD-1 mice brain homogenate. To mimic the extraction in the standard curve, 2.5 μL of DMSO was added to all test samples. Both calibration and test brain homogenate samples were spiked with 10 μL of an IS (1 μg/mL of a structural analog). Brain homogenate was generated by adding 0.75 mL of 4:1 water:MeOH to each brain sample followed by homogenization for 1 minute with bead beater tubes a 6 m/s using an MP Fast Prep-24®. Proteins were precipitated from 100 μL of brain homogenate sample by the addition of 300 μL of acetonitrile. […] A 100 μL aliquot of each supernatant was transferred via a 550 μL Personal Pipettor (Apricot Designs, Monrovia, Calif.) to 96-well plates and diluted 1:1 with HPLC grade water. The resulting plates were sealed with aluminum for LC-MS/MS analysis.
Brain-to-plasma ratios were calculated using the concentration of compound measured in the brain divided by the concentration of compound measured in the plasma. Brain-to-plasma ratios were always generated from a single animal and time point. Free brain-to-free plasma ratios were calculated by multiplying the brain-to-plasma ratio by the in vitro brain homogenate free fraction divided by the in vitro plasma free fraction using the following equation: (B/P)*(Bfu/Pfu).

[7] = MDR1 LLC-PK1 and BCRP MDCKII permeability assay: permeability coefficient (Papp)
Description: as §10, §4, §5, §6, §7, §8, §11

[8] = tested on: LLC-PK1 or MDCKII cell monolayer
Description: as §10, §4, §5, §6, §7, §8, §11

[9] = tested on: A375-luciferase intracranial tumor xenografts; test: Intracranial A375-luciferase efficacy and survival mouse tumor model; assay type: in vivo, female nu/nu NCr mice; details: for Survival (# Animals on day 90): n=10
Description: Female nu/nu NCr mice from Envigo (Indianapolis, Ind.) were obtained at 5-6 weeks of age and housed in groups of 5. Following a one week minimum acclimation period, mice received orthotopic (i.c.) intracranial injections of 3.0×10^3 A375-luciferase tumor cells suspended in a volume of 10 μL 0.9% sterile Dulbecco's phosphate buffered saline (DPBS) using the top-down approach (Laursen and Belknap, 1986). Seven days post cell implant (Day 1), animals were randomized and sorted into five groups (n=10/group).
Test compounds were given at a dose volume of 10 mL/kg, and vehicles were matched for each group to control for dosing stress, i.e. all groups received twice daily (BID) dose administration by oral gavage (PO) at the relevant dose volumes and schedule shown in Table 9. Tumor growth was monitored by measuring luciferase activity twice per week. Total flux/mouse can vary by an order of magnitude on day 1 of study start (start of dosing). The total flux was normalized per mouse by assigning the first measurement of flux on […] as 100%. Body weight loss as an indicator of tumor progression was determined daily during the dosing interval and then as needed (at least once weekly). Survival was evaluated through day 90 (30 days post-dosing cessation).

P-gp (MDR1) [10] = molecular target: T2, P-gp (MDR1); details: pig, LLC-PK1, 2 h, 1 µM
Description: as §10, §5, §6, §7, §8, §9

BCRP [11] = molecular target: T1, BCRP; details: dog, 2 h, 1 µM
Description: as §4, §5, §6, §7, §8, §9

full-length FLAG-tagged B-Raf(V600E), sequence (P15056 whole entry V600E): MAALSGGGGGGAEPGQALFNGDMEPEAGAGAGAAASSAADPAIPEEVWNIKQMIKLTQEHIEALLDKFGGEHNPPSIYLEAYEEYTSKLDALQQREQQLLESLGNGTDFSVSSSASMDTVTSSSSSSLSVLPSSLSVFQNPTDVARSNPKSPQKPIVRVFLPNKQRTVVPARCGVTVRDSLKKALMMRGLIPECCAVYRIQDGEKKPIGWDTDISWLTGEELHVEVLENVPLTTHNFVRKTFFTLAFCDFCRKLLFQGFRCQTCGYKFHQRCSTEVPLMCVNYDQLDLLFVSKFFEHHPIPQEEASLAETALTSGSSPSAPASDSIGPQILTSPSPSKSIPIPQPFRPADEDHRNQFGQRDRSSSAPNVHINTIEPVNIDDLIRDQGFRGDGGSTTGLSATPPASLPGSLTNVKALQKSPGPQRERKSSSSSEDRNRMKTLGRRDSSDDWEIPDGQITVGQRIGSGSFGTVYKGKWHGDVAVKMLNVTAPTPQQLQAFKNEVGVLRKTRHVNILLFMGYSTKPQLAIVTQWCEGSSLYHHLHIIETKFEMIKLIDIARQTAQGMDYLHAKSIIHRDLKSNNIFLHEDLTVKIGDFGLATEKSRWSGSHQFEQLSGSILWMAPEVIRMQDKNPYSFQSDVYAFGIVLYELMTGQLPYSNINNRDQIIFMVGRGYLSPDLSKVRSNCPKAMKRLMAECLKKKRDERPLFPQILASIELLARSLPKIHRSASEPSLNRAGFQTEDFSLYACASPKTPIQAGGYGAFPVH
N-terminally GST-tagged B-Raf(V600K), sequence (P15056 2-766 V600K limits assumed): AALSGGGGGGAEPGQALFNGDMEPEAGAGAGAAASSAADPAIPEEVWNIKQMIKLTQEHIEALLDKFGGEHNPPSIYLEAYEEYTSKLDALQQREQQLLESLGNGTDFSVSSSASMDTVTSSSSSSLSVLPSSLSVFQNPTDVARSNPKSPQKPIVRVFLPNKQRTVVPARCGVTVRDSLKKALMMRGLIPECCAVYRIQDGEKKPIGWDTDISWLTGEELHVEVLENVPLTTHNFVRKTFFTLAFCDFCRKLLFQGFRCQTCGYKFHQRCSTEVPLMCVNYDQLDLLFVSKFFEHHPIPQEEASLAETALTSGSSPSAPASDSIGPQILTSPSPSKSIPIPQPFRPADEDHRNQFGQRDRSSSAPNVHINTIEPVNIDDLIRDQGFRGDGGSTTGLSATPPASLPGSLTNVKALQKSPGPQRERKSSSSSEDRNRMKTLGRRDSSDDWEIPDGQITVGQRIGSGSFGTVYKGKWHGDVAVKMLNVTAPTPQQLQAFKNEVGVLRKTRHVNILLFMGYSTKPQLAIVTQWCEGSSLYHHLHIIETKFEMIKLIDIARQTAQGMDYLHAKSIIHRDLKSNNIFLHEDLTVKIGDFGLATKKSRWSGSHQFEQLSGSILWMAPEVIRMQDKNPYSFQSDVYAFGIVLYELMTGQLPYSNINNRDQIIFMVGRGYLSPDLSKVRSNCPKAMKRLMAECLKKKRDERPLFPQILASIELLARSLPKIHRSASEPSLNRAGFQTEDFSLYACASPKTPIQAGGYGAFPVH
T1 sequence (Q9UNQ0 whole entry, species assumed): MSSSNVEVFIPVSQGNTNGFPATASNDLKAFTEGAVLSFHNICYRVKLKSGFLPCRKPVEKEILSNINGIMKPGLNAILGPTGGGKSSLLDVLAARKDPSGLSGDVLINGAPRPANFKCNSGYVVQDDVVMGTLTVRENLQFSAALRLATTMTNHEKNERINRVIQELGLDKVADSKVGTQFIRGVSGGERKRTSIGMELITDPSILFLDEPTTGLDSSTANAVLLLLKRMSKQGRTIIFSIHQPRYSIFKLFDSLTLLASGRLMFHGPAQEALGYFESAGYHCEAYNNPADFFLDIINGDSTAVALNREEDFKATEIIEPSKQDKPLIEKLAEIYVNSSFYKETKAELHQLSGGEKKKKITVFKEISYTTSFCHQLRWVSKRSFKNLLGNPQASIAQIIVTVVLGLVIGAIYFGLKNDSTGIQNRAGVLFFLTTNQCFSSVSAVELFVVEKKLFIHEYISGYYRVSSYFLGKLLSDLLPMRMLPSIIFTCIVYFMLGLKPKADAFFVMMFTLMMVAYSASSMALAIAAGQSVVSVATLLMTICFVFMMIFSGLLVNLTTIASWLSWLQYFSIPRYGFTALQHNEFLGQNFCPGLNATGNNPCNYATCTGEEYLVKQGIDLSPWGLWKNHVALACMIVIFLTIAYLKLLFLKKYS
T2 sequence (P08183 whole entry, species assumed): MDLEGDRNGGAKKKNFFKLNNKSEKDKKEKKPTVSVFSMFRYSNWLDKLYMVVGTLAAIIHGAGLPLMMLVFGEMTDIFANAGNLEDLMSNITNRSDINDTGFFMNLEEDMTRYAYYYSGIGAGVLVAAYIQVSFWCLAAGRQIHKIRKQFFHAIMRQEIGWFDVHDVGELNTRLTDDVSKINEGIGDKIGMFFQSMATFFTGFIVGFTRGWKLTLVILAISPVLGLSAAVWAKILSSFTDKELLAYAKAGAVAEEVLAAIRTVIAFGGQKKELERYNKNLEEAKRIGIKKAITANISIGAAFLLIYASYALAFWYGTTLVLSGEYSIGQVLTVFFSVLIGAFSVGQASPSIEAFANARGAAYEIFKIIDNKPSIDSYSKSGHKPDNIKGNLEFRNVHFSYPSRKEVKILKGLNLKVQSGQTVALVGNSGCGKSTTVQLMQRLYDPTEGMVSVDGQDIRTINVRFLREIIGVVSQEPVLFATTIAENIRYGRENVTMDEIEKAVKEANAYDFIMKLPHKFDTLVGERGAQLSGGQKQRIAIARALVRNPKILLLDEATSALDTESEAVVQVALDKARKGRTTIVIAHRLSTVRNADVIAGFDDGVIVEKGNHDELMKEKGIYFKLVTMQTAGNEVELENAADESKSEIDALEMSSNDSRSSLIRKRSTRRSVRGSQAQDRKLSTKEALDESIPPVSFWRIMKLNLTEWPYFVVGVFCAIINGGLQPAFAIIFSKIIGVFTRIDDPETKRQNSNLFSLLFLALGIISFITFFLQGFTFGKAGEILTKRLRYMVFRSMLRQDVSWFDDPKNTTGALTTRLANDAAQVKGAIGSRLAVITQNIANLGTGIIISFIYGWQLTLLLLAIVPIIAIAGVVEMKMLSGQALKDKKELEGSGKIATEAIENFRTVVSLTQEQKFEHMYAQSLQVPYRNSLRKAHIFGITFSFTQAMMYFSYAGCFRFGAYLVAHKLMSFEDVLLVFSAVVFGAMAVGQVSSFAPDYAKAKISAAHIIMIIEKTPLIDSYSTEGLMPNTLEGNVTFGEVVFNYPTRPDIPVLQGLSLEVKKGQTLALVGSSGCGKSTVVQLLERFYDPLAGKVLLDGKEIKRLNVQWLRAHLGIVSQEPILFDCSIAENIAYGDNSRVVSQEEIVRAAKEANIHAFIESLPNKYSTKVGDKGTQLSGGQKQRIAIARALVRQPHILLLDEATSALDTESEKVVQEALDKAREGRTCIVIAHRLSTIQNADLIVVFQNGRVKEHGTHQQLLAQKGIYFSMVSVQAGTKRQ

Compound	IC50 [1]	BCRP efflux ratio (BCRP [2])	MDR1 efflux ratio (P-gp (MDR1) [3])	Permeability [4]	IC50 [5]	further results
1-cyclopropyl-N-(4-((3,5-dimethyl-4-oxo-3,4-dihydroquinazolin-6-yl)amino)-3,5-difluoropyridin-2-yl)methanesulfonamide [Example 42]	60.3 nM	23.73	5.26	18.35 *10^−6 cm/s		
CCCS(=O)(=O)Nc1ccc(F)c(Nc2ccc3ncn(C)c(=O)c3c2C)c1F [Example 1, N-(3-((3,5-dimethyl-4-oxo-3,4-dihydroquinazolin-6-yl)amino)-2,4-difluorophenyl)propane-1-sulfonamide]	42.7 nM				8.5 nM	Kp,uu (unbound brain/unbound plasma ratio) [6]: 0.3 to 0.62; efflux ratio at 2 h, 1 µM (BCRP [2]): 3.4; efflux ratio at 2 h, 1 µM (P-gp (MDR1) [3]): 1.68; Papp at 2 h, 1 µM [7]: 34.9 ×10⁻⁶ cm/s
Cc1c(Nc2cccc(NS(=O)(=O)CCCF)c2Cl)ccc2ncn(C)c(=O)c12 [Example 4]	16.1 nM				8.1 nM	Kp,uu (unbound brain/unbound plasma ratio) [6]: 0.35 to 1.6; efflux ratio at 2 h, 1 µM (BCRP [2]): 1.85; efflux ratio at 2 h, 1 µM (P-gp (MDR1) [3]): 1.14; Papp at 2 h, 1 µM [7]: 34.5 ×10⁻⁶ cm/s
CCCS(=O)(=O)Nc1cc(F)c(F)c(Nc2ccc3ncn(C)c(=O)c3c2C)c1Cl [Example 7, N-(2-chloro-3-((3,5-dimethyl-4-oxo-3,4-dihydroquinazolin-6-yl)amino)-4,5-difluorophenyl)propane-1-sulfonamide]	1.3 nM				2.2 nM	Kp,uu (unbound brain/unbound plasma ratio) [6]: 0.87 to 1.19; efflux ratio at 2 h, 1 µM (BCRP [2]): 1.64; efflux ratio at 2 h, 1 µM (P-gp (MDR1) [3]): 1.3; Papp at 2 h, 1 µM [7]: 26.3 ×10⁻⁶ cm/s
CCCS(=O)(=O)Nc1ccc(F)c(Nc2ccc3ncn(C)c(=O)c3c2C)c1Cl [Example 9, N-(2-chloro-3-((3,5-dimethyl-4-oxo-3,4-dihydroquinazolin-6-yl)amino)-4-fluorophenyl)propane-1-sulfonamide]	19.7 nM				6.5 nM	Kp,uu (unbound brain/unbound plasma ratio) [6]: 0.76 to 1.04; efflux ratio at 2 h, 1 µM (BCRP [2]): 1.23; efflux ratio at 2 h, 1 µM (P-gp (MDR1) [3]): 1.26; Papp at 2 h, 1 µM [7]: 27.8 ×10⁻⁶ cm/s
CCCS(=O)(=O)Nc1cc(Cl)cc(Nc2ccc3ncn(C)c(=O)c3c2C)c1Cl [Example 48, N-(2,5-dichloro-3-((3,5-dimethyl-4-oxo-3,4-dihydroquinazoli-6-yl)amino)phenyl)propane-1-sulfonamide]	3 nM					Permeability [8]: 25.83 *10^−6 cm/s
CCCS(=O)(=O)Nc1cccc(Nc2ccc3ncn(C)c(=O)c3c2C)c1C#N [Example 53, N-(2-cyano-3-((3,5-dimethyl-4-oxo-3,4-dihdyroquinazolin-6-yl)amino)phenyl)propane-1-sulfonamide]	9.4 nM					Permeability [8]: 27.13 *10^−6 cm/s
CCN(C)S(=O)(=O)Nc1ccc(F)c(Nc2ccc3ncn(C)c(=O)c3c2C)c1Cl [Example 54, N-(2-chloro-3-((3,5-dimethyl-4-oxo-3,4-dihydroquinazolin-6-yl)amino)-4-fluorophenyl)-N-ethyl-N-methylamino-1-sulfonamide]	188 nM					Permeability [8]: 35.81 *10^−6 cm/s
Cc1c(Oc2c(F)ccc(NS(=O)(=O)CCCF)c2Cl)ccc2ncn(C)c(=O)c12 [Example 67, N-{2-chloro-3-[(3,5-dimethyl-4-oxo-3,4-dihydroquinazolin-6-yl)oxy]-4-fluorophenyl}-3-fluoropropane-1-sulfonamide]	2 nM				2.8 nM	Kp,uu (unbound brain/unbound plasma ratio) [6]: 0.4 to 0.49; efflux ratio at 2 h, 1 µM (BCRP [2]): 1.8; efflux ratio at 2 h, 1 µM (P-gp (MDR1) [3]): 1.8; Papp at 2 h, 1 µM [7]: 27.6 ×10⁻⁶ cm/s
Cc1c(Nc2c(F)ccc(NS(=O)(=O)CCCF)c2Cl)ccc2ncn(C)c(=O)c12 [Example 82, N-(2-chloro-3-((3,5-dimethyl-4-oxo-3,4-dihydroquinazolin-6-yl)amino)-4-fluorophenyl)-3-fluoropropane-1-sulfonamide]						Survival (# Animals on day 90) ([9]; Example 82 10 mg/kg BID PO 60 days): 6/10; Survival (# Animals on day 90) ([9]; Example 82 30 mg/kg BID PO 60 days): 6/10; efficacy as a single agent in the model ([9]; both doses employed (10 and 30 mg/kg BID PO)): highly effective; effect on tumor growth (total bioluminescence, FIG. 15) ([9]; single agent, BID for 60 consecutive days PO): significant effect
N-(2-chloro-3-((3,5-dimethyl-4-oxo-3,4-dihydroquinazolin-6-yl)amino)-4-fluorophenyl)-1-cyclopropylmethanesulfonamide [Example 50]	66.1 nM	1.13	1.54	21.88 *10^−6 cm/s		
N-(2-chloro-3-((3,5-dimethyl-4-oxo-3,4-dihydroquinazolin-6-yl)amino)-4-fluorophenyl)-2-methylpropane-1-sulfonamide [Example 51]	63.4 nM	1.28	1.64	27.16 *10^−6 cm/s		
N-(2-chloro-3-((3,5-dimethyl-4-oxo-3,4-dihydroquinazolin-6-yl)amino)-4-fluorophenyl)ethanesulfonamide [Example 52]	226 nM	1.28	1.76	28.91 *10^−6 cm/s		
N-(3-chloro-4-((3,5-dimethyl-4-oxo-3,4-dihydroquinazolin-6-yl)amino)-5-fluoropyridin-2-yl)-1-cyclopropylmethanesulfonamide [Example 47]	41.7 nM	7.93	1.84	25.7 *10^−6 cm/s		
N-(3-chloro-4-((3,5-dimethyl-4-oxo-3,4-dihydroquinazolin-6-yl)amino)-5-fluoropyridin-2-yl)ethanesulfonamide [Example 45]	137 nM	11.29	2.47	16.56 *10^−6 cm/s		
N-(4-((3,5-dimethyl-4-oxo-3,4-dihydroquinazolin-6-yl)amino)-3,5-difluoropyridin-2-yl)ethanesulfonamide [Example 43]	260 nM	26.02	5.24	8.75 *10^−6 cm/s		
N-{2-chloro-3-[(3,5-dimethyl-4-oxo-3,4-dihydroquinazolin-6-yl)oxy]-4-fluorophenyl}propane-1-sulfonamide [Example 55]	5.4 nM				3.1 nM	B/P ratio (free) [6]: 0.46-0.51; MDR1 efflux ratio (P-gp (MDR1) [10]): 1.1; BCRP efflux ratio (BCRP [11]): 0.83
